# Test results: patent publication US10364244B2, “Crystal form of pyrroloquinoline quinone sodium salt and preparation method and use thereof” (Zhejiang Hisun Pharmaceutical Co., Ltd., priority 2015, dated 2019)
# Assays:
# [1] = Hygroscopicity test (25° C., humidity 75%, 24 h); type: physicochemical; conditions: for Rate of moisture absorption: 1 g sample, temperature of 25° C., humidity of 75%; for hygroscopicity (conclusion in words from the hygroscopicity test): 25° C., humidity 75%
# Experimental: Hygroscopicity test. Test Conditions: watch glasses were placed in the environment at the temperature of 25° C. and the humidity of 75% for 24 h, then for each of the following samples, 1 g was weighed, and the weighted samples were quickly placed in the environment at the temperature of 25° C. and the humidity of 75% for 24 h to absorb moisture sufficiently.
# [2] = at 65%-85% RH; cited from earlier work
SMILES,Rate of moisture absorption ([1]; disodium salt) [%],hygroscopicity (conclusion in words from the hygroscopicity test) ([1]; disodium salt),also measured
"O=C(O)c1cc(C(=O)O)c2c(n1)C(=O)C(=O)c1cc(C(=O)O)[nH]c1-2.[Na] [Crystal form IV, pyrroloquinoline quinone monosodium salt]",,,Rate of moisture absorption [1]: 0%; hygroscopicity (conclusion in words from the hygroscopicity test) [1]: not hygroscopic
"O=C(O)c1cc(C(=O)O)c2c(n1)C(=O)C(=O)c1cc(C(=O)O)[nH]c1-2.[Na].[Na] [Crystal form II, pyrroloquinoline quinone disodium salt]",0.30,,
"O=C(O)c1cc(C(=O)O)c2c(n1)C(=O)C(=O)c1cc(C(=O)O)[nH]c1-2.[Na] [crystal form A in CN201210452297.6, pyrroloquinoline quinone sodium salt]",,,hygroscopicity [2]: less than 3%
"O=C(O)c1cc(C(=O)O)c2c(n1)C(=O)C(=O)c1cc(C(=O)O)[nH]c1-2.[Na].[Na] [Crystal form of the disodium salt in CN201080031945] [pyrroloquinoline quinone disodium salt, reference compound]",0.85,,"hygroscopicity (conclusion in words from the hygroscopicity test) ([1]; listed as crystal form in CN201080031945, disodium salt): strongest hygroscopicity"
"O=C(O)c1cc(C(=O)O)c2c(n1)C(=O)C(=O)c1cc(C(=O)O)[nH]c1-2.[Na].[Na] [Crystal form I, pyrroloquinoline quinone disodium salt]",0,not hygroscopic,
"O=C(O)c1cc(C(=O)O)c2c(n1)C(=O)C(=O)c1cc(C(=O)O)[nH]c1-2.[Na].[Na] [Crystal form III, pyrroloquinoline quinone disodium salt]",0,not hygroscopic,
